In US20240270741A1 (Cogent Biosciences, Inc., priority 2023, published 2024) one finds IC50 data, which are given here for 30 molecules.

FGFR2, sequence (P21802 399-821 limits assumed): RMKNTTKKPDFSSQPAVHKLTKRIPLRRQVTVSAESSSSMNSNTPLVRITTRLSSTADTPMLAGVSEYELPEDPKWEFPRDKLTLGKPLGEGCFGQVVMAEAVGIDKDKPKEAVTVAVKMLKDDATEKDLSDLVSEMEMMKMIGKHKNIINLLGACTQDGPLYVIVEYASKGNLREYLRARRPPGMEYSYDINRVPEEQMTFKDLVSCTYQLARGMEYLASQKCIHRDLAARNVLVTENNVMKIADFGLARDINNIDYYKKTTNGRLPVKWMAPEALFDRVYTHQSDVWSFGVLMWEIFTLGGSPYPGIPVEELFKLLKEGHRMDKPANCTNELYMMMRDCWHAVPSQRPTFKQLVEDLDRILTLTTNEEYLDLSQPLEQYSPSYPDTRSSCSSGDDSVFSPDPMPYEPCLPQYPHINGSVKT

The experiment has as its target FGFR2 (Homo sapiens, UniProt P21802). Put plainly: FGFR wild type enzyme assay (HTRF KinEASE-TK), FGFR2. Conditions: Enz FGFR2 (nM), FGFR2 wild type enzyme assay.
The molecule `Cc1c(-c2cc(Sc3ccc(F)cc3C#N)c3c(C#N)cnn3c2)cnn1[C@H]1CCCN(c2ncccn2)C1` [Example 433, (S)-4-((2-cyano-4-fluorophenyl)thio)-6-(5-methyl-1-(1-(pyrimidin-2-yl)piperidin-3-yl)-1H-pyrazol-4-yl)pyrazolo[1,5-a]pyridine-3-carbonitrile] showed an IC50 of 5 nM. To `Cc1c(-c2cc(Sc3ncccc3C#N)c3c(C#N)cnn3c2)cnn1[C@H]1CCCNC1` [Example 434, (S)-4-((3-cyanopyridin-2-yl)thio)-6-(5-methyl-1-(piperidin-3-yl)-1H-pyrazol-4-yl)pyrazolo[1,5-a]pyridine-3-carbonitrile] belongs 1 nM; to `N#Cc1cc(F)ccc1Sc1cc(-c2cnn([C@H]3CCCNC3)c2)cn2ncc(C#N)c12` [Example 435, (S)-4-((2-cyano-4-fluorophenyl)thio)-6-(1-(piperidin-3-yl)-1H-pyrazol-4-yl)pyrazolo[1,5-a]pyridine-3-carbonitrile], 1 nM; to `CC(=O)N1CCC(n2ncc(-c3cc(Sc4ccccc4C#N)c4c(C#N)cnn4c3)c2C)CC1` [Example 436, 6-(1-(1-acetylpiperidin-4-yl)-5-methyl-1H-pyrazol-4-yl)-4-((2-cyanophenyl)thio)pyrazolo [1,5-a]pyridine-3-carbonitrile], 1 nM.

`Cc1c(-c2cc(Sc3ccccc3C#N)c3c(C#N)cnn3c2)cnn1C1CCN(C(=O)C(C)(C)C)CC1` [Example 437, 4-((2-cyanophenyl)thio)-6-(5-methyl-1-(1-pivaloylpiperidin-4-yl)-1H-pyrazol-4-yl)pyrazolo[1,5-a]pyridine-3-carbonitrile]: the IC50 is 1 nM. `Cc1c(-c2cc(Sc3ccc(F)cc3C#N)c3c(C#N)cnn3c2)cnn1[C@H]1CC[C@@](O)(CO)CC1` [Example 438, 4-(2-cyano-4-fluoro-phenyl) sulfanyl-6-[1-[4-hydroxy-4-(hydroxymethyl)cyclohexyl]-5-methylpyrazol-4-yl] pyrazolo[1,5-a]pyridine-3-carbonitrile] registered an IC50 of 1 nM.

In turn, `Cc1c(-c2cc(Sc3ccc(F)cc3C#N)c3c(C#N)cnn3c2)cnn1[C@@H]1CNC(C)(C)C1` [Example 439, (S)-4-((2-cyano-4-fluorophenyl)thio)-6-(1-(5,5-dimethylpyrrolidin-3-yl)-5-methyl-1H-pyrazol-4-yl)pyrazolo[1,5-a]pyridine-3-carbonitrile] displayed an IC50 of 1 nM.

Molecule `Cc1c(-c2cc(Sc3ccc(F)cc3C#N)c3c(C#N)cnn3c2)cnn1[C@H]1CNC(C)(C)C1` [Example 440, (R)-4-((2-cyano-4-fluorophenyl)thio)-6-(1-(5,5-dimethylpyrrolidin-3-yl)-5-methyl-1H-pyrazol-4-yl)pyrazolo[1,5-a]pyridine-3-carbonitrile] yielded an IC50 of 2 nM. Against the preceding molecule, the IC50 is about 2-fold higher.

`Cc1nn([C@H]2CC[C@H](O)CC2)cc1-c1cc(Sc2ccccc2C#N)c2c(C#N)cnn2c1` [Example 441, 4-((2-cyanophenyl)thio)-6-(1-((1r,4r)-4-hydroxycyclohexyl)-3-methyl-1H-pyrazol-4-yl)pyrazolo[1,5-a]pyridine-3-carbonitrile] gave an IC50 of 3 nM. Against the preceding molecule, the IC50 is about 1.5-fold higher.

`Cc1nn([C@H]2CC[C@H](O)CC2)cc1-c1cc(Sc2ncccc2F)c2c(C#N)cnn2c1` [Example 442, 4-((3-fluoropyridin-2-yl)thio)-6-(1-((1r,4r)-4-hydroxycyclohexyl)-3-methyl-1H-pyrazol-4-yl)pyrazolo[1,5-a]pyridine-3-carbonitrile] displayed an IC50 of 8 nM. To `Cc1nn([C@H]2CC[C@H](O)CC2)cc1-c1cc(Sc2ccc(F)cc2C#N)c2c(C#N)cnn2c1` [Example 443, 4-((2-cyano-4-fluorophenyl)thio)-6-(1-((1r,4r)-4-hydroxycyclohexyl)-3-methyl-1H-pyrazol-4-yl)pyrazolo[1,5-a]pyridine-3-carbonitrile] belongs 4 nM; to `CC(=O)N1CCC(n2cc(-c3cc(Sc4ccccc4C#N)c4c(C#N)cnn4c3)cn2)CC1` [Example 444, 6-(1-(1-acetylpiperidin-4-yl)-1H-pyrazol-4-yl)-4-((2-cyanophenyl)thio)pyrazolo [1,5-a]pyridine-3-carbonitrile], 0.3 nM; to `N#Cc1cc(F)ccc1Sc1cc(-c2cnn(C3CCN(C(=O)CO)CC3)c2)cn2ncc(C#N)c12` [Example 445, 4-((2-cyano-4-fluorophenyl)thio)-6-(1-(1-(2-hydroxyacetyl)piperidin-4-yl)-1H-pyrazol-4-yl)pyrazolo[1,5-a]pyridine-3-carbonitrile], 1 nM. As to `N#Cc1ccccc1Sc1cc(-c2cnn(C3CCN(C(=O)CO)CC3)c2)cn2ncc(C#N)c12` [Example 446, 4-((2-cyanophenyl)thio)-6-(1-(1-(2-hydroxyacetyl)piperidin-4-yl)-1H-pyrazol-4-yl)pyrazolo[1,5-a]pyridine-3-carbonitrile], the IC50 is 0.5 nM. The value for `C[C@@H](O)C(=O)N1CCC(n2cc(-c3cc(Sc4ccccc4C#N)c4c(C#N)cnn4c3)cn2)CC1` [Example 447] was 0.4 nM.

On to `C[C@H](O)C(=O)N1CCC(n2cc(-c3cc(Sc4ccccc4C#N)c4c(C#N)cnn4c3)cn2)CC1` [Example 448, (S)-4-((2-cyanophenyl)thio)-6-(1-(1-(2-hydroxypropanoyl)piperidin-4-yl)-1H-pyrazol-4-yl)pyrazolo[1,5-a]pyridine-3-carbonitrile], for which the IC50 stood at 0.3 nM. The value for `CC(C)n1cc(-c2cc(Sc3ncccc3F)c3c(C#N)cnn3c2)cn1` [Example 449, 4-((3-fluoropyridin-2-yl)thio)-6-(1-isopropyl-1H-pyrazol-4-yl)pyrazolo[1,5-a]pyridine-3-carbonitrile] was 2 nM. `CC(=O)N1CC[C@H](n2cc(-c3cc(Sc4ncccc4F)c4c(C#N)cnn4c3)cn2)C1` [Example 450, (S)-6-(1-(1-acetylpyrrolidin-3-yl)-1H-pyrazol-4-yl)-4-((3-fluoropyridin-2-yl)thio)pyrazolo[1,5-a]pyridine-3-carbonitrile]: half-maximal inhibition (IC50) required 1 nM.

In turn, `N#Cc1cnn2cc(-c3cnn([C@H]4CCN(C(=O)CO)C4)c3)cc(Sc3ncccc3F)c12` [Example 451, (S)-4-((3-fluoropyridin-2-yl)thio)-6-(1-(1-(2-hydroxyacetyl)pyrrolidin-3-yl)-1H-pyrazol-4-yl)pyrazolo[1,5-a]pyridine-3-carbonitrile] showed an IC50 of 1 nM. This lies in the single-digit nanomolar range.

Regarding `CC(C)n1cc(-c2cc(Sc3ccccc3C#N)c3c(C#N)cnn3c2)cn1` [Example 452, 4-((2-cyanophenyl)thio)-6-(1-isopropyl-1H-pyrazol-4-yl)pyrazolo[1,5-a]pyridine-3-carbonitrile], the IC50 was determined as 0.6 nM. To `CC(=O)N1CC[C@H](n2cc(-c3cc(Sc4ccccc4C#N)c4c(C#N)cnn4c3)cn2)C1` [Example 453, (S)-6-(1-(1-acetylpyrrolidin-3-yl)-1H-pyrazol-4-yl)-4-((2-cyanophenyl)thio)pyrazolo [1,5-a]pyridine-3-carbonitrile] belongs 0.4 nM; to `CC(=O)N1CCC(n2nc(C)c(-c3cc(Sc4ncccc4F)c4c(C#N)cnn4c3)c2F)CC1` [Example 454, 6-(1-(1-acetylpiperidin-4-yl)-5-fluoro-3-methyl-1H-pyrazol-4-yl)-4-((3-fluoropyridin-2-yl)thio)pyrazolo[1,5-a]pyridine-3-carbonitrile], 12 nM; to `Cc1noc(N2CCC[C@H](n3ncc(-c4cc(Sc5ccc(F)cc5C#N)c5c(C#N)cnn5c4)c3C)C2)n1` [Example 455, 4-(2-cyano-4-fluoro-phenyl)sulfanyl-6-[5-methyl-1-[(3S)-1-(3-methyl-1,2,4-oxadiazol-5-yl)-3-piperidyl]pyrazol-4-yl]pyrazolo[1,5-a]pyridine-3-carbonitrile], 2 nM.

In turn, `Cc1c(-c2cc(Sc3ccc(F)cc3C#N)c3c(C#N)cnn3c2)cnn1[C@H]1CCCN(c2ccccn2)C1` [Example 456, (S)-4-((2-cyano-4-fluorophenyl)thio)-6-(5-methyl-1-(1-(pyridin-2-yl)piperidin-3-yl)-1H-pyrazol-4-yl)pyrazolo[1,5-a]pyridine-3-carbonitrile] came in with an IC50 of 8 nM. Against the preceding molecule, the IC50 is about 4-fold higher. `N#Cc1cnn2cc(-c3cnn([C@H]4CCCNC4)n3)cc(Sc3ncccc3F)c12` [Example 457, 4-[(3-fluoro-2-pyridyl)sulfanyl]-6-[2-[(3S)-3-piperidyl]triazol-4-yl]pyrazolo[1,5-a]pyridine-3-carbonitrile] came in with an IC50 of 13 nM. On to `CC(=O)N1CC[C@H](n2cc(-c3cc(Sc4ccccc4C#N)c4c(C#N)cnn4c3)cn2)[C@@H](O)C1` [Example 458, 6-(1-((3S,4S)-1-acetyl-3-hydroxypiperidin-4-yl)-1H-pyrazol-4-yl)-4-((2-cyanophenyl)thio)pyrazolo [1,5-a]pyridine-3-carbonitrile], for which the IC50 is 1 nM. Molecule `CC(=O)N1CC[C@@H](n2cc(-c3cc(Sc4ccccc4C#N)c4c(C#N)cnn4c3)cn2)[C@H](O)C1` [Example 459, 6-(1-((3R,4R)-1-acetyl-3-hydroxypiperidin-4-yl)-1H-pyrazol-4-yl)-4-((2-cyanophenyl)thio)pyrazolo [1,5-a]pyridine-3-carbonitrile] had a 50% inhibitory concentration (IC50) of 0.4 nM. The value for `N#Cc1cc(F)ccc1Sc1cc(-c2cn([C@H]3CCCNC3)nn2)cn2ncc(C#N)c12` [Example 460, (S)-4-((2-cyano-4-fluorophenyl)thio)-6-(1-(piperidin-3-yl)-1H-1,2,3-triazol-4-yl)pyrazolo[1,5-a]pyridine-3-carbonitrile] was 6 nM; that for `N#Cc1ccccc1Sc1cc(-c2cn([C@H]3CCCNC3)nn2)cn2ncc(C#N)c12` [Example 461, (S)-4-((2-cyanophenyl)thio)-6-(1-(piperidin-3-yl)-1H-1,2,3-triazol-4-yl)pyrazolo[1,5-a]pyridine-3-carbonitrile] was 4 nM; that for `N#Cc1cc(F)ccc1Sc1cc(-c2cnn([C@H]3CCCNC3)n2)cn2ncc(C#N)c12` [Example 462, (S)-4-((2-cyano-4-fluorophenyl)thio)-6-(2-(piperidin-3-yl)-2H-1,2,3-triazol-4-yl)pyrazolo[1,5-a]pyridine-3-carbonitrile] was 19 nM.
